Experimental data taken from US9302999B2, “Substituted triazoles as herbicides” (E. I. DU PONT DE NEMOURS AND COMPANY, priority 2012, dated 2016).

Assays:
Assay type in all cases: in vivo
[1] = tested on: chickweed (common chickweed, Stellaria media); assay: Test C postemergence: chickweed
In short: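 Crop and weed plants were grown in peat-vermiculite medium and treated postemergence at the 1- to 4-leaf stage (2-18 cm tall). After 13-15 days in a greenhouse, each species was rated visually against untreated controls on a 0-100 scale (0 no effect, 100 complete control).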

kochia (Kochia scoparia) = assay: Test C pre-/postemergence: kochia
In short: (§1)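 Preemergence on seeds in loam/sand, postemergence on 2–18 cm (1–4-leaf) plants in peat-based medium; compounds in non-phytotoxic solvent with surfactant. After 13–15 days in greenhouse, visual rating versus controls, 0 (no effect) to 100 (complete control).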

[2] = tested on: foxtail, giant (giant foxtail, Setaria faberii); assay: Test A pre-/postemergence: foxtail, giant; details: for Foxtail, Giant plant response rating: Postemergence; for Plant response rating, Foxtail, Giant: Preemergence
In short: (§2)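 Compounds, formulated with surfactant in non-phytotoxic solvent, were applied as a directed soil spray preemergence and as postemergence sprays to 2–10 cm, one- to two-leaf seedlings grown in loam soil blended with sand; visual injury, 0–100, assessed ~10 days post-treatment against untreated controls.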

wild oat (Avena fatua) = assay: Test C pre-/postemergence: wild oat
In short: as §1

[3] = tested on: ragweed (common ragweed, Ambrosia elation); assay: Test C pre-/postemergence: ragweed
In short: as §1

[4] = tested on: foxtail, giant (giant foxtail, Setaria faberii); assay: Test C pre-/postemergence: foxtail, giant
In short: as §1

[5] = tested on: ducksalad (Heteranthera limosa); assay: Test B flooded paddy: ducksalad; details: Flood; 250 g ai/ha; applied to paddy water at 2-leaf stage; visually evaluated after 13 to 15 days
In short: (§3)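 Visual ratings on a 0–100 scale, where 0 means no effect and 100 means complete control, were assigned by comparison with controls 13 to 15 days after treatment. Compounds went into paddy water over 2-leaf plants flooded to 3 cm.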

[6] = tested on: pigweed (Amaranthus retroflexus); assay: Test A pre-/postemergence: pigweed
In short: as §2

[7] = tested on: velvetleaf (Abutilon theophrasti); assay: Test A pre-/postemergence: velvetleaf
In short: as §2

[8] = tested on: crabgrass, large (large crabgrass, Digitaria sanguinalis); assay: Test A pre-/postemergence: crabgrass, large; details: for Crabgrass, Large plant response rating: Postemergence; for Plant response rating, Crabgrass, Large: Preemergence
In short: as §2

[9] = tested on: barnyardgrass (Echinochloa crus-galli); assay: Test B flooded paddy: barnyardgrass; details: Flood; 250 g ai/ha; applied to paddy water at 2-leaf stage; visually evaluated after 13 to 15 days
In short: as §3

[10] = 62 g ai/ha, scale 0 to 100 (0 no effect, 100 complete control)
[11] = 125 g ai/ha, scale 0 to 100, 0 no effect, 100 complete control
[12] = Postemergence, 31 g ai/ha, scale 0 to 100 (0 no effect, 100 complete control)
[13] = Postemergence, 62 g ai/ha, scale 0 to 100 (0 no effect, 100 complete control)
[14] = Postemergence, 125 g ai/ha, scale 0 to 100, 0 no effect, 100 complete control
[15] = Postemergence, 250 g ai/ha, scale 0 to 100
[16] = 125 g ai/ha, 0 to 100 scale, 0 is no effect, 100 is complete control
[17] = 500 g ai/ha, visual rating on 0 to 100 scale (0 no effect, 100 complete control), approximately ten days
[18] = 125 g ai/ha, 0 to 100 scale (0 no effect, 100 complete control)
[19] = 500 g ai/ha, 0 to 100 scale, 0 is no effect, 100 is complete control
[20] = Postemergence, 125 g ai/ha, 0 to 100 scale, 0 is no effect, 100 is complete control
[21] = Postemergence, 500 g ai/ha, visual rating on 0 to 100 scale (0 no effect, 100 complete control), approximately ten days
[22] = Preemergence, 125 g ai/ha, 0 to 100 scale (0 no effect, 100 complete control)
[23] = Preemergence, 500 g ai/ha, 0 to 100 scale, 0 is no effect, 100 is complete control
[24] = Preemergence, 31 g ai/ha, scale of 0 to 100, 0 is no effect, 100 is complete control
[25] = Preemergence, 62 g ai/ha, scale of 0 to 100, 0 is no effect, 100 is complete control
[26] = Preemergence, 125 g ai/ha, scale 0 to 100, 0 no effect, 100 complete control
[27] = Preemergence, 250 g ai/ha, scale 0 to 100, 0 no effect, 100 complete control
[28] = 125 g ai/ha, 0 to 100 scale where 0 is no effect and 100 is complete control
[29] = 500 g ai/ha, 0 to 100 scale (0 no effect, 100 complete control)
[30] = Preemergence, 125 g ai/ha, 0 to 100 scale where 0 is no effect and 100 is complete control
[31] = Preemergence, 500 g ai/ha, 0 to 100 scale (0 no effect, 100 complete control)

In the case of FC(F)(F)c1ccc(-n2nc(Cl)c(Cc3ccnc(C(F)(F)F)c3)n2)cc1 [Compound 28], the “Plant response rating, Chickweed” value ([1]; 31 g ai/ha, scale 0 to 100 (0 no effect, 100 complete control)) is reported as 30, the “Plant response rating, Chickweed” value [1, 10] is reported as 55 and the “Plant response rating, Chickweed” value [1, 11] is reported as 95. For the same compound, the “Plant response rating, Chickweed” value ([1]; 250 g ai/ha, scale 0 to 100) was 100, the “Plant response rating, Kochia” value (kochia (Kochia scoparia); [12]) was 40 and the “Plant response rating, Kochia” value (kochia (Kochia scoparia); [13]) was 65. The “Plant response rating, Kochia” value (kochia (Kochia scoparia); [14]) was 75, the “Plant response rating, Kochia” value (kochia (Kochia scoparia); [15]) was 95 and the “Foxtail, Giant plant response rating” value [2, 16] was 90. For the same compound, the “Foxtail, Giant plant response rating” value [2, 17] was 90, the “Plant response rating, Foxtail, Giant” value [2, 18] was 100 and the “Plant response rating, Foxtail, Giant” value [2, 19] was 100. The “Plant response rating, Oat, Wild” value (wild oat (Avena fatua); [12]) was 10, the “Plant response rating, Oat, Wild” value (wild oat (Avena fatua); [13]) was 15 and the “Plant response rating, Oat, Wild” value (wild oat (Avena fatua); [14]) was 40. The “Plant response rating, Oat, Wild” value (wild oat (Avena fatua); [15]) was 70, the “Plant response rating, Ragweed” value [3, 12] was 35 and the “Plant response rating, Ragweed” value [3, 13] was 60. For the same compound, the “Plant response rating, Ragweed” value [3, 15] was 85, the “Plant response rating, Foxtail, Giant” value [4, 12] was 35 and the “Plant response rating, Foxtail, Giant” value [4, 13] was 35. The “Plant response rating, Foxtail, Giant” value [4, 14] was 35, the “Plant response rating, Foxtail, Giant” value [4, 15] was 50 and the “Plant response rating, Ducksalad (0 to 100 scale, 0 is no effect, 100 is complete control)” value [5] was 95. The “Pigweed plant response rating” value [6, 20] was 100, the “Pigweed plant response rating” value [6, 21] was 100 and the “Plant response rating, Pigweed” value [6, 22] was 100. For the same compound, the “Plant response rating, Pigweed” value [6, 23] was 100, the “Velvetleaf plant response rating” value [7, 20] was 80 and the “Velvetleaf plant response rating” value [7, 21] was 100. For the same compound, the “Plant response rating, Velvetleaf” value [7, 22] was 20, the “Plant response rating, Velvetleaf” value [7, 23] was 80 and the “Crabgrass, Large plant response rating” value [8, 16] was 70. The “Crabgrass, Large plant response rating” value [8, 17] was 90, the “Plant response rating, Crabgrass, Large” value [8, 18] was 30 and the “Plant response rating, Crabgrass, Large” value [8, 19] was 90. For the same compound, the “Plant response rating, Barnyardgrass (0 to 100 scale, 0 is no effect, 100 is complete control)” value [9] was 90.
In the case of COc1nn(-c2ccc(C(F)(F)F)cc2)nc1Cc1ccnc(C(F)F)c1 [Compound 138], the “Plant response rating, Chickweed” value [1, 10] is reported as 80, the “Plant response rating, Chickweed” value [1, 11] is reported as 95 and the “Plant response rating, Chickweed” value ([1]; 250 g ai/ha, scale 0 to 100) is reported as 98. The “Plant response rating, Kochia” value (kochia (Kochia scoparia); [12]) was 95, the “Plant response rating, Kochia” value (kochia (Kochia scoparia); [13]) was 95 and the “Plant response rating, Kochia” value (kochia (Kochia scoparia); [14]) was 98. The “Plant response rating, Kochia” value (kochia (Kochia scoparia); [15]) was 98, the “Plant response rating, Kochia” value (kochia (Kochia scoparia); [24]) was 55 and the “Plant response rating, Kochia” value (kochia (Kochia scoparia); [25]) was 65. The “Plant response rating, Kochia” value (kochia (Kochia scoparia); [26]) was 85, the “Plant response rating, Kochia” value (kochia (Kochia scoparia); [27]) was 90 and the “Foxtail, Giant plant response rating” value [2, 16] was 90. The “Foxtail, Giant plant response rating” value [2, 17] was 90, the “Plant response rating, Foxtail, Giant” value [2, 28] was 100 and the “Plant response rating, Foxtail, Giant” value [2, 29] was 100. The “Plant response rating, Oat, Wild” value (wild oat (Avena fatua); [12]) was 55, the “Plant response rating, Oat, Wild” value (wild oat (Avena fatua); [13]) was 60 and the “Plant response rating, Oat, Wild” value (wild oat (Avena fatua); [14]) was 80. For the same compound, the “Plant response rating, Oat, Wild” value (wild oat (Avena fatua); [15]) was 98, the “Plant response rating, Oat, Wild” value (wild oat (Avena fatua); [24]) was 80 and the “Plant response rating, Oat, Wild” value (wild oat (Avena fatua); [25]) was 85. For the same compound, the “Plant response rating, Oat, Wild” value (wild oat (Avena fatua); [26]) was 95, the “Plant response rating, Oat, Wild” value (wild oat (Avena fatua); [27]) was 95 and the “Plant response rating, Ragweed” value [3, 12] was 75. For the same compound, the “Plant response rating, Ragweed” value [3, 13] was 80, the “Plant response rating, Ragweed” value [3, 14] was 85 and the “Plant response rating, Ragweed” value [3, 15] was 85. The “Plant response rating, Ragweed” value [3, 24] was 40, the “Plant response rating, Ragweed” value [3, 25] was 45 and the “Plant response rating, Ragweed” value [3, 26] was 50. For the same compound, the “Plant response rating, Ragweed” value [3, 27] was 50, the “Plant response rating, Foxtail, Giant” value [4, 12] was 20 and the “Plant response rating, Foxtail, Giant” value [4, 13] was 55. The “Plant response rating, Foxtail, Giant” value [4, 14] was 55, the “Plant response rating, Foxtail, Giant” value [4, 15] was 95 and the “Plant response rating, Foxtail, Giant” value [4, 24] was 98. The “Plant response rating, Foxtail, Giant” value [4, 25] was 100, the “Plant response rating, Foxtail, Giant” value [4, 26] was 100 and the “Plant response rating, Foxtail, Giant” value [4, 27] was 100. For the same compound, the “Plant response rating, Ducksalad (0 to 100 scale, 0 is no effect, 100 is complete control)” value [5] was 90, the “Plant response rating, Pigweed” value [6, 20] was 100 and the “Pigweed plant response rating” value [6, 21] was 100. The “Plant response rating, Pigweed” value [6, 30] was 100, the “Plant response rating, Pigweed” value [6, 31] was 100 and the “Plant response rating, Velvetleaf” value [7, 20] was 100. The “Velvetleaf plant response rating” value [7, 21] was 100, the “Plant response rating, Velvetleaf” value [7, 30] was 70 and the “Plant response rating, Velvetleaf” value [7, 31] was 100. For the same compound, the “Crabgrass, Large plant response rating” value [8, 16] was 90, the “Crabgrass, Large plant response rating” value [8, 17] was 90 and the “Plant response rating, Crabgrass, Large” value [8, 28] was 90. The “Plant response rating, Crabgrass, Large” value [8, 29] was 90 and the “Plant response rating, Barnyardgrass (0 to 100 scale, 0 is no effect, 100 is complete control)” value [9] was 80.
